Measurements from ChEMBL document CHEMBL5678818, “Discovery of potent SOS1 inhibitors that block RAS activation via disruption of the RAS-SOS1 interaction” (Proc Natl Acad Sci U S A, 2019).

Key:
[1] = biological target: Serine/threonine-protein kinase PAK 6 (Homo sapiens) (UniProt Q9NQU5); test: Inhibition of PAK6 (unknown origin) assessed as residual activity at 1000 nM by KINOMEscan analysis relative to control
[2] = biological target: Serine/threonine-protein kinase PAK 3 (Homo sapiens) (UniProt O75914); test: Inhibition of PAK3 (unknown origin) assessed as residual activity at 1000 nM by KINOMEscan analysis relative to control
[3] = biological target: Serine/threonine-protein kinase Nek6 (Homo sapiens) (UniProt Q9HC98); test: Inhibition of NEK6 (unknown origin) assessed as residual activity at 1000 nM by KINOMEscan analysis relative to control
[4] = biological target: T1, Dual serine/threonine and tyrosine protein kinase (Homo sapiens) (UniProt Q6XUX3); test: Inhibition of RIPK5 (unknown origin) assessed as residual activity at 1000 nM by KINOMEscan analysis relative to control
T1 sequence (whole entry): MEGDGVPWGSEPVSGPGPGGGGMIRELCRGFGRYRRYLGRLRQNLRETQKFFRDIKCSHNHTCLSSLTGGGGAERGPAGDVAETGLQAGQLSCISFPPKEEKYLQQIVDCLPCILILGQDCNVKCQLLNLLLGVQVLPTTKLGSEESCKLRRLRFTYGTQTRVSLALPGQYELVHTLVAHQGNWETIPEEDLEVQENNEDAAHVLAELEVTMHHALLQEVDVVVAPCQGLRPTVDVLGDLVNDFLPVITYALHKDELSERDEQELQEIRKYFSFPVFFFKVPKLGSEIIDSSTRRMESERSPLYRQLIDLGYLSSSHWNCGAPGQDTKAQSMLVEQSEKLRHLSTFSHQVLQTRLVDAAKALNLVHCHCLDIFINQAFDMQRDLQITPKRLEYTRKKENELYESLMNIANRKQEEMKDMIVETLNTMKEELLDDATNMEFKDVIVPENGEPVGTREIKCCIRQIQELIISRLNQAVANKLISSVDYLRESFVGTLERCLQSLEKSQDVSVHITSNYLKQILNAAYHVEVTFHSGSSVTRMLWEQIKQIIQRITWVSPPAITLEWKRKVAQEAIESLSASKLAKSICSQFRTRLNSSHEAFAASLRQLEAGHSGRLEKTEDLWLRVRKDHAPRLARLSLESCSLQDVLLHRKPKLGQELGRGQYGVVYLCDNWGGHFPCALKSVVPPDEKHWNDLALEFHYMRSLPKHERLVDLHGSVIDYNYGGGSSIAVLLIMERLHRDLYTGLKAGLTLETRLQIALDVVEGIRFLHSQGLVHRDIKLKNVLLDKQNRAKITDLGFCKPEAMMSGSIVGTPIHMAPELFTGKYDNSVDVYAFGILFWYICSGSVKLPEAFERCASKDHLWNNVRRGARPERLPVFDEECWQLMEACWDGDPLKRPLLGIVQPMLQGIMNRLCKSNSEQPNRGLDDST

[5] = test system: Epidermal growth factor receptor (Homo sapiens), P00533 [UNDEFINED MUTATION]; test: Inhibition of EGFR L747-E749del/A750P mutant (unknown origin) assessed as residual activity at 1000 nM by KINOMEscan analysis relative to control
[6] = biological target: Cyclin-dependent kinase 9 (Homo sapiens) (UniProt P50750); test: Inhibition of CDK9 (unknown origin) assessed as residual activity at 1000 nM by KINOMEscan analysis relative to control
[7] = biological target: Tyrosine-protein kinase HCK (Homo sapiens) (UniProt P08631); test: Inhibition of HCK (unknown origin) assessed as residual activity at 1000 nM by KINOMEscan analysis relative to control
[8] = biological target: Death-associated protein kinase 1 (Homo sapiens) (UniProt P53355); test: Inhibition of DAPK1 (unknown origin) assessed as residual activity at 1000 nM by KINOMEscan analysis relative to control
[9] = biological target: T2, Tyrosine-protein kinase TXK (Homo sapiens) (UniProt P42681); test: Inhibition of TXK (unknown origin) assessed as residual activity at 1000 nM by KINOMEscan analysis relative to control
T2 sequence (whole entry): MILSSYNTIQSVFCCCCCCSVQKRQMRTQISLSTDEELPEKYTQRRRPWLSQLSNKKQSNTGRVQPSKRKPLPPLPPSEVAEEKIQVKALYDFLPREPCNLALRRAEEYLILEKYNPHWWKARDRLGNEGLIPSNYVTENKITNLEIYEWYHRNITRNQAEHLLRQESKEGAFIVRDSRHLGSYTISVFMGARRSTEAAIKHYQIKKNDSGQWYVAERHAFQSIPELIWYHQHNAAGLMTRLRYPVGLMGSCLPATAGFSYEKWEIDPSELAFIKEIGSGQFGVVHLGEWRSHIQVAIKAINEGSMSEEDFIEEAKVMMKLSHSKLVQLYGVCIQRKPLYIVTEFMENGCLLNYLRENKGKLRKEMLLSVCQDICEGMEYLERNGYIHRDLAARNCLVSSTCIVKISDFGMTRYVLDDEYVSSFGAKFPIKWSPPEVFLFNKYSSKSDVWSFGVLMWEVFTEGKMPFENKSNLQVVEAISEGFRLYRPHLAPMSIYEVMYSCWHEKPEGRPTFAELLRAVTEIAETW

[10] = biological target: T3, Serine/threonine-protein kinase 3 (Homo sapiens) (UniProt Q13188); test: Inhibition of MST2 (unknown origin) assessed as residual activity at 1000 nM by KINOMEscan analysis relative to control
T3 sequence (whole entry): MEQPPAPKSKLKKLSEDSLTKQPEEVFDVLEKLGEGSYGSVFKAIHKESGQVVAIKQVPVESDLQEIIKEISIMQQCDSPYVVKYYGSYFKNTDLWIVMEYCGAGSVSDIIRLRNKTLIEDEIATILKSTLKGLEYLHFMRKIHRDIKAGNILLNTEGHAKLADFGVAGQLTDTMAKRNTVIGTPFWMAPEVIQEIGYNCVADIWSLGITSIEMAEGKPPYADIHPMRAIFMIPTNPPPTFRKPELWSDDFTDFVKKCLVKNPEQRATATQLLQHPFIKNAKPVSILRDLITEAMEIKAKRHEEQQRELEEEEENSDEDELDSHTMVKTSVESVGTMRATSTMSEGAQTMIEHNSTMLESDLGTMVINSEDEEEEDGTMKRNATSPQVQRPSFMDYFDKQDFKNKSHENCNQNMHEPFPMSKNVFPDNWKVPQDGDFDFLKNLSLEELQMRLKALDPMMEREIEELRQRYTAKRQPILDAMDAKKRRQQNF

[11] = test system: Tyrosine-protein kinase ABL1 (Homo sapiens), P00519 [F317L]; test: Inhibition of phosphorylated ABL1 F317L mutant (unknown origin) assessed as residual activity at 1000 nM by KINOMEscan analysis relative to control
[12] = biological target: Cyclin-dependent kinase 4/cyclin D1 (Homo sapiens) (UniProt P11802+P24385); test: Inhibition of CDK4-cyclin D1 (unknown origin) assessed as residual activity at 1000 nM by KINOMEscan analysis relative to control; type: protein-complex assay

Cyclin-dependent kinase 9 (Homo sapiens), sequence (P50750 whole entry): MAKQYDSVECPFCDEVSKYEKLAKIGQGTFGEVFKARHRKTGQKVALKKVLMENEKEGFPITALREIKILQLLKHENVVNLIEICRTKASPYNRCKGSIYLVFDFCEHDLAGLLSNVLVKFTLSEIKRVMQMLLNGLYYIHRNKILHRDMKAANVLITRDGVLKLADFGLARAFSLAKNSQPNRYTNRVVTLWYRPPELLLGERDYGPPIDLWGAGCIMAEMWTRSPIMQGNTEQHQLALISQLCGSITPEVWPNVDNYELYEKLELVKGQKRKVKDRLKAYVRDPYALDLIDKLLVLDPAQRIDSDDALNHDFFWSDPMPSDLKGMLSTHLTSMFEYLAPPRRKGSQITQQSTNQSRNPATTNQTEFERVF
Death-associated protein kinase 1 (Homo sapiens), sequence (P53355 whole entry, looked up): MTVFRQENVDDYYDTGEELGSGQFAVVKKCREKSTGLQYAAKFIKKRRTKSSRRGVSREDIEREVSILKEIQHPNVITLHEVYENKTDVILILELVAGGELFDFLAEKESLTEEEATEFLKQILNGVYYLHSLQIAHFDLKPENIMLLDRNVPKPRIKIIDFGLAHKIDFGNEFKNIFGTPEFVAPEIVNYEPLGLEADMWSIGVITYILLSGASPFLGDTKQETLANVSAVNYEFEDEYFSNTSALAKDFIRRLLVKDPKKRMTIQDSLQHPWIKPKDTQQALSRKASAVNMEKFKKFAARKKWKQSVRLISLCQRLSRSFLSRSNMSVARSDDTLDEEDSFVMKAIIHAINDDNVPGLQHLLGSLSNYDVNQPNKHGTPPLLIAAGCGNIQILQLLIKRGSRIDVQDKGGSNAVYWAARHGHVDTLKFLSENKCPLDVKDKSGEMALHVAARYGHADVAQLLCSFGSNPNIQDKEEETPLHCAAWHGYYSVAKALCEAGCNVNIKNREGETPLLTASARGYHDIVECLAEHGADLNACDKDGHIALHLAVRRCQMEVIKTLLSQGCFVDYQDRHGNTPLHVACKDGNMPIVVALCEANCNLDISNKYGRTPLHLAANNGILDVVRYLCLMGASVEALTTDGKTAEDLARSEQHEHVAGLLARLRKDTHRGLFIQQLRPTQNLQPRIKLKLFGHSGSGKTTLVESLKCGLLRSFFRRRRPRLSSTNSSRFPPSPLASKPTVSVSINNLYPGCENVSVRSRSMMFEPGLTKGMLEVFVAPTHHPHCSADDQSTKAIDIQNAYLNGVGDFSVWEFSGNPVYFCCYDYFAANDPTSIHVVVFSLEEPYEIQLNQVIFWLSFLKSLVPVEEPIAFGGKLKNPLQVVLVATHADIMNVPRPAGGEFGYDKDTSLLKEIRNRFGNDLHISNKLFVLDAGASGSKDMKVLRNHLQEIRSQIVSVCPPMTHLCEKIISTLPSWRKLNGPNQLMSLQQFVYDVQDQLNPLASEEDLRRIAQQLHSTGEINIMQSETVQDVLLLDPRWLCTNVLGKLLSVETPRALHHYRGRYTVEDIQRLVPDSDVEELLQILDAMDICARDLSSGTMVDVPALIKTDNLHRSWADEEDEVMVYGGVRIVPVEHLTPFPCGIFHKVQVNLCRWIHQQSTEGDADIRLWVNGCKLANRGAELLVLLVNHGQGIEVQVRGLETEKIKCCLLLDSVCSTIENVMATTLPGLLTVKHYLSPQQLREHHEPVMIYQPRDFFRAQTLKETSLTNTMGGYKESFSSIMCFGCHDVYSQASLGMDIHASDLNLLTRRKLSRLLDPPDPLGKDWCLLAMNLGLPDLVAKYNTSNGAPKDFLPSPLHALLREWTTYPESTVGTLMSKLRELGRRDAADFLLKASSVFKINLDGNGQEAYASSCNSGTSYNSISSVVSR
Tyrosine-protein kinase HCK (Homo sapiens), sequence (P08631 2-526 limits assumed): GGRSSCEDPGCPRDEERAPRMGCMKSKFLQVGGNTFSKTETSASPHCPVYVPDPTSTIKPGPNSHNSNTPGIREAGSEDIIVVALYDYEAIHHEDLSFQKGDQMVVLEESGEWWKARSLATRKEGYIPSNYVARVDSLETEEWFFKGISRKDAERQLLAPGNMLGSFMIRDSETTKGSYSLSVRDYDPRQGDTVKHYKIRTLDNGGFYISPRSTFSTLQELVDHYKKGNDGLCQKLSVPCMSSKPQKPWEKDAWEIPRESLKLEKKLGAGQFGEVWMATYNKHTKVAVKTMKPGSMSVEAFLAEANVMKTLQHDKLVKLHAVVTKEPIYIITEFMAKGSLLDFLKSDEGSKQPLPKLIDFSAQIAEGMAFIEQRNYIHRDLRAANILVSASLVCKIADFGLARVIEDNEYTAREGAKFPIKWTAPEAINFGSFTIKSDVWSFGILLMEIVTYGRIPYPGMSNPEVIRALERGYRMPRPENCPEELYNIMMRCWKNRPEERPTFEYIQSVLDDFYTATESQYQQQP
Epidermal growth factor receptor (Homo sapiens), P00533 [UNDEFINED MUTATION], sequence (P00533 whole entry, looked up, stated change not applied): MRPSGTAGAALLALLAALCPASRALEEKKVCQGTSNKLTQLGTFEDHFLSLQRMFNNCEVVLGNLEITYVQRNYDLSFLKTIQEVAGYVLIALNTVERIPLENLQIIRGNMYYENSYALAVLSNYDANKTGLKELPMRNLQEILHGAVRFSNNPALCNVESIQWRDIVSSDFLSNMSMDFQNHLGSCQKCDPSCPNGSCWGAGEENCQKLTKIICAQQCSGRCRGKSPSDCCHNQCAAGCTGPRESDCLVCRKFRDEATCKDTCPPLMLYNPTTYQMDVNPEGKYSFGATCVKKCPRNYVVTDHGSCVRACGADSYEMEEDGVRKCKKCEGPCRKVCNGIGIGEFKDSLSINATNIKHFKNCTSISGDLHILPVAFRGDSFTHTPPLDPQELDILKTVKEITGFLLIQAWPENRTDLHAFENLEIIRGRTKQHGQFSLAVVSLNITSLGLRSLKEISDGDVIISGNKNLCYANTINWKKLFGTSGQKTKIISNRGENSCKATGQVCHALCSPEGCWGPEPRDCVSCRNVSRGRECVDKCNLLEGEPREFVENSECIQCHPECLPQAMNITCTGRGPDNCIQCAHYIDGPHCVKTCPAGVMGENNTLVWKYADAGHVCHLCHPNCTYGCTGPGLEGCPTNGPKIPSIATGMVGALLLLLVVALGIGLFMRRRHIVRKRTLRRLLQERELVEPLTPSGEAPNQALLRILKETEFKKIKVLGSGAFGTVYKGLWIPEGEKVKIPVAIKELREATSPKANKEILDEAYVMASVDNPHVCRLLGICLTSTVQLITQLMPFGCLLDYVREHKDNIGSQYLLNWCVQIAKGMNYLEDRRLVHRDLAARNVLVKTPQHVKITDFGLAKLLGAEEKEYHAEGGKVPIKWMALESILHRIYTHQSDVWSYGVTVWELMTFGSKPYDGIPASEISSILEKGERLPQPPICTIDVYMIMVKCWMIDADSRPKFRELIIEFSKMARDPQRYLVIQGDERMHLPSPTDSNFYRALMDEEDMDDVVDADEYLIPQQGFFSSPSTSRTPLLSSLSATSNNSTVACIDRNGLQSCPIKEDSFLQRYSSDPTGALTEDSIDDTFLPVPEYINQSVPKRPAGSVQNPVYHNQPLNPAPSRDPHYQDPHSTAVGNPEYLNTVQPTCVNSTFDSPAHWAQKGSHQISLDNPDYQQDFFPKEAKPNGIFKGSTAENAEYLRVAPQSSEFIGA
Tyrosine-protein kinase ABL1 (Homo sapiens), P00519 [F317L], sequence (P00519 whole entry F317L): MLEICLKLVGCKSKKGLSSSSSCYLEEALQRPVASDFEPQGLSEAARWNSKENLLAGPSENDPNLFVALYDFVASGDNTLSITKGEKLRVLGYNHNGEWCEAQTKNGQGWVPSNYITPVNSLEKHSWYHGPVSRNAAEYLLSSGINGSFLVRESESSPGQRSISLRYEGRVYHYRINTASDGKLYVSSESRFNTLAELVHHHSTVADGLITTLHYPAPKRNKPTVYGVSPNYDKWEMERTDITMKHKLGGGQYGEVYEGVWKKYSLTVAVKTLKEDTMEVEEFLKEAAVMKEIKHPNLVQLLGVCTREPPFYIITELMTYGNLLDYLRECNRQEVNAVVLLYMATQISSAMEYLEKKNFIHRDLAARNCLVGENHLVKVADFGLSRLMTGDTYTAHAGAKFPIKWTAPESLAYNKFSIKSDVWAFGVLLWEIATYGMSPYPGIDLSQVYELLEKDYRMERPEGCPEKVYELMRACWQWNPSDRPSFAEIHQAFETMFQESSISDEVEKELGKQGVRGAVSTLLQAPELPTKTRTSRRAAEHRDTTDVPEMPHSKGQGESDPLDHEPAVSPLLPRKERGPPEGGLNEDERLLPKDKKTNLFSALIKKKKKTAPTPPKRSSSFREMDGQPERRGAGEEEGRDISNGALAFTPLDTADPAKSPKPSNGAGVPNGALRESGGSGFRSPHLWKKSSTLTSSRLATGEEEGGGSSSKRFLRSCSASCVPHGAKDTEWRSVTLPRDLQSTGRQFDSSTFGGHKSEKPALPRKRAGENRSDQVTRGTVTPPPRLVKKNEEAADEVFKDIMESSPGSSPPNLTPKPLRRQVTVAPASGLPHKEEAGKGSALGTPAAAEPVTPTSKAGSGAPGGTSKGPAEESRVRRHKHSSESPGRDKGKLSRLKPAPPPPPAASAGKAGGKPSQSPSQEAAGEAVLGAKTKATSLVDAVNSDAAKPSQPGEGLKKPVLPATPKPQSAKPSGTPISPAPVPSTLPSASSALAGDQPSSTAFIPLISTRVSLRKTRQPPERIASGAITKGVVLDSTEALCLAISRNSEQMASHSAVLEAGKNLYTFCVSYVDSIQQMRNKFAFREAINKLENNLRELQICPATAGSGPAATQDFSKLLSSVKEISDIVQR
Serine/threonine-protein kinase Nek6 (Homo sapiens), sequence (Q9HC98 whole entry): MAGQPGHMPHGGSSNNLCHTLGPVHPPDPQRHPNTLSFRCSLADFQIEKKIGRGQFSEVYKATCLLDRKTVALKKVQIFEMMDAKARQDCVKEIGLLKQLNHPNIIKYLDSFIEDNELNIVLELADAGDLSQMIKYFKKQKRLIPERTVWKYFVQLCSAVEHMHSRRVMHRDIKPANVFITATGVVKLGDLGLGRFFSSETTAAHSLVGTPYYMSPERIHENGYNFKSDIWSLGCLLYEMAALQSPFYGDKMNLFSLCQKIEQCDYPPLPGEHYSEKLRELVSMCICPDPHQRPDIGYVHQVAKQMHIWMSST

SMILES	Activity [1] [%]	Activity [2] [%]	Activity [3] [%]	Activity [4] [%]	Activity [5] [%]	Activity [6] [%]	Activity [7] [%]	Activity [8] [%]	Activity [9] [%]	Activity [10] [%]	Activity [11] [%]	Activity [12] [%]
COc1cc2nc(C)nc(N[C@H](C)c3cccc(-c4cn[nH]c4)c3)c2cc1OC	88	34	93	77	99	95	77	82	83	79	92	100
COc1cc2ncnc(N[C@H](C)c3cccc4ccccc34)c2cc1OC	91	58	97	86	3.2	95	93	100	100	96	89	98
